Measured values published in patent US20050163773A1, “Methods and pharmaceutical compositions for dopaminergic modulation of t-cell adhesion and activity” (priority 2001, published 2005).
Where “and” joins values, the source holds several entries; their conditions need not be identical. Equal entries are not always repeated.

Key:
normal human T-cells [1] = test: Membrane potential measurement by flow cytometry, human T-cells; type: cell-based; conditions: DPAT 10^−8 M
Method: (§1) Membrane potential measurements by flow cytometry: Purified normal human or mouse antigen-specific T-cells were incubated in serum-free medium (RPMI, ˜1×10^6/ml, 1 hr, 37° C., 10% CO2 humidified incubator) to assure steady state conditions. The cells were then washed, resuspended in normal RPMI, distributed into individual tubes (˜1×10^6/tube), added with 300 nM di-BA-C4(3) oxanol dye (Molecular Probes, Inc., Eugene, Oreg., USA), and 5-15 minutes later added with DPAT (10^−8 M). Alternatively, the human T-cells were resuspended either in normal RPMI, or in rich K^+ RPMI solutions, incubated for 30 min (37° C., 10% CO2), and loaded with 300 nM di-BA-C4(3) oxanol dye. The cell fluorescence was analyzed on the FACSORT at 488 nm.

[2] = tested on: mouse antigen-specific (MBP87-99) T-cells; test: Membrane potential measurement by flow cytometry, mouse antigen-specific T-cells; type: cell-based; conditions: DPAT 10^−8 M; di-BA-C4(3) oxanol dye
Method: as §1

[3] = tested on: SJL/J anti PLP 139-151 T-cells; test: Experimental autoimmune encephalomyelitis (EAE) induced by encephalitogenic T-cells treated ex vivo; type: in vivo, mouse
[4] = tested on: oxazalone-sensitized T-cells; test: Passively transferred delayed type hypersensitivity (DTH) with T-cells treated ex vivo; type: in vivo, mouse
Method: Lymph nodes were removed from oxazalone-sensitized mice, and the T-cell suspension was exposed ex-vivo to increasing concentrations of DPAT (FIG. 9A, DPAT […]-DPAT 10^−6M) as described for FIG. 8 hereinabove. Control T-cells were incubated with medium only (untreated T-cells). The T-cells were then washed, resuspended in PBS and injected intravenously into naive syngeneic mice. The ears of the recipient mice were than challenged with oxazalone, and the degree of ear swelling was measured by micrometer 24 hr later. DTH is expressed as the mean ±SD of ear swelling in units of 10^−2 mm. […] Oxazalone-sensitized T-cells were incubated ex vivo for one hour with either DPAT (10^−8 M, +DPAT) or U-Mal (10^−7 M, +U-Mal), or both. The T-cells were then washed, resuspended in PBS, injected intravenously into normal recipients, and DTH measured as described hereinabove. […] FIGS. 9A and 9B represent two individual experiments, each experimental group consisting of 8 mice.
Passively transferred delayed type hypersenisitivity (DTH): Groups of 6-8 BALB/c female mice (The Jackson Laboratory, Bar Harbor, Mass., USA) were sensitized on the abdominal skin with 200 μt of 2% oxazalone dissolved in acetone/olive oil [4:1 vol/vol)] applied topically. Five days later, lymph nodes were removed from the sensitized mice, and a cell suspension prepared. The cells (3-5×10^6/ml in RPMI, no additional supplements) were than added for […] incubation ([…]. 37° C., 10% CO2 humidified incubator) with either DPAT, U-Mal, or both (in the latter combination the antagonist added 5 minutes before the agonist). The cells were than washed, resuspended in PBS, and injected IV (40×10^6 /mouse) into normal BALB/c recipients. Immediately afterwards the recipient mice were […] with 10 μl of 2% oxazalone in acetone/olive oil, applied topically to each side of the ear. A constant area of the ear was measured immediately before challenge and 24 hr after the challenge with a Mitutoyo engineer's micrometer. The individual measuring the ear swelling was unaware of the identity of the mice groups. The DTH reaction is expressed as the mean±SD (for each group) of the increment of ear swelling 24 hours after inoculation of the oxazalone-sensitized T-cells, in units of 10^−2 mm.

IL-10 secretion = IL-10 secretion by human peripheral T-cells (sandwich ELISA); type: cell-based; conditions: agonist 10^−7 M, 72 hours
Source text: The results are expressed as pg/ml IL-10. […] Immunostaining is with intracellular anti-IL-10 FITC conjugated (FL-1) and anti-CD4 PE conjugated (FL-2) antibodies, as described in Materials and Methods hereinbelow.
The results are expressed as pg/mi.
(§2) The results are expressed as pg/ml.
as §2, §2

normal human T-cells [5] = test: Proliferation of resting normal human T-cells (CyQuant); type: cell-based; conditions: 48 hours
Method: FIGS. 18A-C depict the proliferation of resting normal human and cultured Jurkat T-cells induced by physiological concentrations of DPAT. […] Numbers of T-cells were evaluated using the CyQuant cell proliferation assay kit (Molecular Probes), according to the manufacturer instructions. FIG. 18A represents a calibration of the CyQuant cell kit, showing the linear relationship between the fluorescent intensity and untreated human T-cell number. Note the similar maximal enhancement of T-cell proliferation with 10^−10M DPAT in purified normal human (18B) and cultured Jurkat T-cells (FIG. 18C).

[6] = tested on: resting human peripheral T-cells; test: Gene expression, Atlas human cDNA expression array; type: cell-based; conditions: DPAT 10 nM, 24 hours
Method: Poly A+RNA was extracted from human T-lymphocytes before and after treatment with 10 nM DPAT for 24 hours, using the Atlas Pure Total RNA Labeling System (Clontech Laboratories, Inc. Palo Alto, Calif.) according to manufacturers recommendations. […] Hybridizations to the Atlas Human cDNA Expression Arrays membranes (Catalog No. 1.2 KIII (7850-1) and III (7855-1), Clontech Laboratories) were performed by Clonetech Laboratories, as described in the user manual, and the expression pattern of up and down regulated genes was visualized by autoradiography.
Poly A+ RNA was prepared from both DPAT- treated and untreated cells and reverse transcribed to ^32P-labeled cDNA. Using an Atlas human cDNA expression array (i.e. a positively charged nylon membrane spotted with 1200 different human cDNAs) for identification of effected genes, the reverse transcribed products were characterized by hybridization to the atlas membranes. The differential pattern of expression between untreated cells and DPAT-treated cells was visualized by autoradiography, and quantified by densitometry. (FIGS. 20A and 20B). […] This member of the ovalbumin family of serine protease inhibitors is expressed at elevated levels in patients with acute myeloid leukemia and chronic myelomonocytic leukemia, inhibits TNF alpha-induced cell death, and has been linked to the regulation of protease activities in early hematopoiesis (Riewald, M et al Blood 1998;91:1256-62 and Schleef R R and Chuang T L J Biol Chem 2000;275:26385-9).

[7] = tested on: Bomapin (protease inhibitor 10, PI 10); test: RT-PCR analysis of Bomapin mRNA in peripheral T-cells; type: cell-based, human; conditions: DPAT 10 nM; not shown
normal human T-cells [8] = test: T-cell adhesion assay (adhesion of human T-cells to fibronectin)
Method: T-cell adhesion assay: In the majority of the experiments, adhesion of purified normal human T-cells to fibronectin was assayed with radioactively labeled T-cells as follows: normal human T-cells, purified from a fresh blood sample, were labeled with Na2[^51CrO4], washed, and resuspended in adhesion medium (RPMI-1640 supplemented with 2% BSA, 1 mM Ca^++, 1 mM Mg^++, 1% sodium pyruvate, 1% glucose, and 1% HEPES buffer). The cells were then pre-treated (30 min., 37° C.) with DPAT, and added to fibronectin coated (1 μg/well; Sigma Chemicals, St. Louis, Mo.) microtiter flat-bottomed 96 well plates (1×10^5 cells/100 μl/well). The plates were placed in a humidified incubator (37° C., 30 min., 10% CO2), and than washed thoroughly several times with PBS, to remove non-adherent T-cells. The adherent T-cells were lysed with 1% Tween 20 in 1N NaOH, and the radioactivity in the resulting supernatants was determined in a γ-counter. For each experimental group, results were expressed as the mean CPM±SD of bound T-cells from quadruplicate wells. DPAT-treated T-cell adhesion to BSA-(rather than fibronectin) coated wells, and untreated T-cell adhesion to fibronectin coated wells, were the standard negative controls.
Non-radioactive T-cell adhesion assays: Alternatively, T-cell adhesion assays were performed with non-radioactively labeled cells, differing from the above protocol only in the final detection steps which were performed as follows: After the final washing of the adhesion plates and removal of the non adherent cells, the microtiter wells were supplemented with lysis and substrate solution (60 μl/well of: 0.5% Triton X-100 in water mixed with an equal volume of 7.5 mM p-nitrophenol-N-acetyl-β-D-glucosaminide, (Sigma Chemicals, St. Louis, Mo.) in 0.1M citrate buffer pH=5.0). The plates were then incubated (˜18hr) in a CO2-free 37° C. incubator, supplemented with stop solution (90 μl/well of 50 mM glycine, (Sigma Chemicals, St. Louis, Mo.) pH=10.4 containing 5 mM EDTA), and the optical density was measured at 405 nm in a standard Elisa reader.

CCCN(CCC)C1CCc2ccc(O)cc2C1 (stereo not drawn) [DPAT, 7-Hydroxy-DPAT]
level of depolarization, comparable extracellular K^+ concentration (normal human T-cells [1]): ~20 mM
depolarization of normal human T-cells (normal human T-cells [1]; di-BA-C4(3) oxanol dye): clear depolarization
shift of membrane potential (normal human T-cells [1]; from a resting potential of ˜48 mV): ~6 mV
depolarization of mouse antigen specific T-cells [2]: clear depolarization
severity of EAE in recipient mice ([3]; T-cells incubated 1 hour with DPAT 10^−8 M ex vivo, IV into naive SJL/J mice, documented 5-12 days later): significantly reduced the severity
percentage of mice developing EAE, individual experiments ([3]; mice injected with DPAT-treated T-cells, four independent experiments): 83% and 60% (2×) and 80%
percentage of mice developing EAE, mean of four experiments ([3]; mice injected with DPAT-treated T-cells, p<0.01 vs untreated T-cells): 70%
DTH (ear swelling) caused by oxazalone-sensitized T-cells ([4]; DPAT 10^−8 M ex vivo, 1 hr, ear swelling 24 hr after challenge): significantly reduced
DTH suppression at higher and lower concentrations ([4]; DPAT concentrations other than 10^−8 M): either less or not at all effective
reduction of DTH ([4]; DPAT ex vivo, ear swelling 24 hr after challenge): > 60%
induction of IL-10 secretion by receptor-specific Dopamine agonists (IL-10 secretion): induced by the D2 and D3
DPAT concentration of maximal enhancement of proliferation, normal human T-cells (normal human T-cells [5]): 10^−10 M
proliferation of normal human T-cells relative to untreated cells (normal human T-cells [5]; DPAT 10^−8 M to 10^−10 M): up to 5 times that of untreated cells
down-regulation of gene expression [6]: down-regulated the expression of others
expression of Lupus LA protein and Cathepsin E precursor [6]: induced expression of Lupus LA protein and Cathepsin E precursor
expression of the serine protease inhibitor Bomapin [6]: induction of expression
over expression of mRNA (upregulated genes) [6]: induced the over expression of mRNA encoding for several genes
abundance of Bomapin transcripts [7]: increased abundance of Bomapin transcripts
DPAT-treated T-cell adhesion to BSA-coated wells (normal human T-cells [8]; DPAT 10 nM, BSA- instead of fibronectin-coated wells (negative control)): < 6%
adhesion when T-cells or fibronectin-coated wells were transiently exposed to DPAT (normal human T-cells [8]; DPAT 10^−8 M, washed before seeding): significant adhesion of T-cells to fibronectin was evident only if the T-cells
optimum concentration for induction of T-cell adhesion to fibronectin (normal human T-cells [8]; dose dependence, human T-cells): 10 nM
